Where “and” joins values, the source holds several entries; their conditions need not be identical. Equal values may be shown once.

Results on one substance are retold here after patent US20250177547A1, “PSMA-STEAP1 DUAL VARIABLE DOMAIN IMMUNOGLOBLIN (DVD-Ig) MOLECULES AND DRUG CONJUGATES” (AbbVie Inc., priority 2023, published 2025).

In test [1] the test system is LNCaP.FGC cells. The test can be described thus: In vitro cytotoxicity of MMAE conjugates (CellTiter-Glo), LNCaP.FGC. Conditions: read-out: LNCaP.FGC IC50, 7 days.
In test [2] the test system is HEK293-PSMA cells. Description: In vitro cytotoxicity of MMAE conjugates (CellTiter-Glo), HEK293-PSMA. Conditions: read-out: HEK293-PSMA IC50, 7 days, CellTiter-Glo.

Turning to PSMA, the IC50 is 0.15 nM and 0.1 nM in test [1]; 0.07 nM and 0.06 nM in test [2].
